Measured values taken from PubChem BioAssay (NCI).
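Compound exposure: 48 hours, 5 concentrations, 96-well plates. Definition used: TGI = concentration required for complete inhibition of growth.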

Experiments:
Assay in all cases: NCI tumour cell line growth inhibition, 48 h
A498 renal = tested on: A498 renal
A549 NSCLC = tested on: A549 NSCLC
ACHN renal = tested on: ACHN renal
CAKI-1 renal = tested on: CAKI-1 renal
CCRF-CEM leukemia = tested on: CCRF-CEM leukemia
COLO 205 colon = tested on: COLO 205 colon
DMS 114 small cell lung = tested on: DMS 114 small cell lung
DMS 273 small cell lung = tested on: DMS 273 small cell lung
EKVX NSCLC = tested on: EKVX NSCLC
HCC-2998 colon = tested on: HCC-2998 colon
HCT-116 colon = tested on: HCT-116 colon
HCT-15 colon = tested on: HCT-15 colon
HL-60(TB) leukemia = tested on: HL-60(TB) leukemia
HOP-62 NSCLC = tested on: HOP-62 NSCLC
HOP-92 NSCLC = tested on: HOP-92 NSCLC
HT29 colon = tested on: HT29 colon
IGROV1 ovarian = tested on: IGROV1 ovarian
K-562 leukemia = tested on: K-562 leukemia
KM12 colon = tested on: KM12 colon
KM20L2 colon = tested on: KM20L2 colon
LOX IMVI melanoma = tested on: LOX IMVI melanoma
LXFL 529 NSCLC = tested on: LXFL 529 NSCLC
M14 melanoma = tested on: M14 melanoma
M19-MEL melanoma = tested on: M19-MEL melanoma
MOLT-4 leukemia = tested on: MOLT-4 leukemia
NCI-H226 lung = tested on: NCI-H226 lung
NCI-H23 lung = tested on: NCI-H23 lung
NCI-H460 lung = tested on: NCI-H460 lung
NCI-H522 lung = tested on: NCI-H522 lung
OVCAR-4 ovarian = tested on: OVCAR-4 ovarian
OVCAR-5 ovarian = tested on: OVCAR-5 ovarian
OVCAR-8 ovarian = tested on: OVCAR-8 ovarian
RPMI-8226 leukemia = tested on: RPMI-8226 leukemia
RXF 393 renal = tested on: RXF 393 renal
SF-268 CNS = tested on: SF-268 CNS
SF-295 CNS = tested on: SF-295 CNS
SF-539 CNS = tested on: SF-539 CNS
SK-MEL-2 melanoma = tested on: SK-MEL-2 melanoma
SK-MEL-28 melanoma = tested on: SK-MEL-28 melanoma
SK-MEL-5 melanoma = tested on: SK-MEL-5 melanoma
SK-OV-3 ovarian = tested on: SK-OV-3 ovarian
SN12C renal = tested on: SN12C renal
SNB-19 CNS = tested on: SNB-19 CNS
SNB-75 CNS = tested on: SNB-75 CNS
SNB-78 CNS = tested on: SNB-78 CNS
SR leukemia = tested on: SR leukemia
SW-620 colon = tested on: SW-620 colon
TK-10 renal = tested on: TK-10 renal
U251 CNS = tested on: U251 CNS
UACC-257 melanoma = tested on: UACC-257 melanoma
UACC-62 melanoma = tested on: UACC-62 melanoma
UO-31 renal = tested on: UO-31 renal
XF 498 CNS = tested on: XF 498 CNS
786-0 renal = tested on: 786-0 renal
DLD-1 colon = tested on: DLD-1 colon
HOP-18 NSCLC = tested on: HOP-18 NSCLC
MALME-3M melanoma = tested on: MALME-3M melanoma
OVCAR-3 ovarian = tested on: OVCAR-3 ovarian

Measured: TGI

Cc1nc(Nc2nnc(-c3cc([N+](=O)[O-])cc([N+](=O)[O-])c3C)o2)sc1C(=O)CC(=O)Cc1nc2ccc(Cl)cc2[nH]c1=O
not listed: 786-0 renal | DLD-1 colon | HOP-18 NSCLC | MALME-3M melanoma | OVCAR-3 ovarian
> 100 µM: all other assays above

COC1=CC(=O)c2ccc(C(C)C)cc2C1(C)C1=NC(C)(C)CO1 (stereo unspecified)
not listed: A498 renal | HCC-2998 colon | LOX IMVI melanoma | OVCAR-5 ovarian | SNB-78 CNS
> 100 µM: all other assays above
